Paper PMC10178848, “Modulating fast skeletal muscle contraction protects skeletal muscle in animal models of Duchenne muscular dystrophy” (The Journal of Clinical Investigation, 2023)

Experiments:
[1] = molecular target: T1, LCK (Homo sapiens, UniProt P06239); experiment: SAFETYscan Binding; set-up: dose or concentration left out as unconfirmed; conditions: read-out: Max Response (%) (Antagonist)
T1 construct: purchased Eurofins DiscoverX (KINOMEscan; SAFETYscan E/IC50 ELECT)
Procedure: (§1) The specificity of EDG-5506 for fast skeletal myosin over other, unrelated proteins was confirmed using two off-target binding and activity screens. […] A second off-target panel (SAFETYscan E/IC50 ELECT, Eurofins DiscoverX) tested in vitro enzyme activity against 78 proteins, including GPCR, ion channel, kinases, nuclear hormone receptors, and transporters. In all assays, the IC50 of EDG-5506 was more than 10 μM (Supplemental Data File 1).

[2] = molecular target: T2, ROCK1 (Homo sapiens, UniProt Q13464); experiment: SAFETYscan Binding; set-up: dose or concentration left out as unconfirmed; conditions: read-out: Max Response (%) (Antagonist)
T2 construct: purchased Eurofins DiscoverX (KINOMEscan; SAFETYscan E/IC50 ELECT)
Procedure: as §1

[3] = molecular target: T3, VEGFR2 (Homo sapiens, UniProt P35968); experiment: SAFETYscan Binding; set-up: dose or concentration left out as unconfirmed; conditions: read-out: Max Response (%) (Antagonist)
T3 construct: purchased Eurofins DiscoverX (KINOMEscan; SAFETYscan E/IC50 ELECT)
Procedure: as §1

[4] = molecular target: T4, INSR (Homo sapiens, UniProt P06213); experiment: SAFETYscan Binding; set-up: dose or concentration left out as unconfirmed; conditions: read-out: Max Response (%) (Antagonist)
T4 construct: purchased Eurofins DiscoverX (KINOMEscan; SAFETYscan E/IC50 ELECT)
Procedure: as §1

[5] = test system: mdx lumbrical muscle; experiment: Ex vivo mdx lumbrical muscle contraction, calcium and clots; set-up: species or system mouse
Procedure: Intracellular calcium quantification and isometric injury were described previously ([31]). Lumbrical muscles were transferred to a custom-built chamber and mounted horizontally to a force transducer (model 400A, Aurora Scientific) at 25°C. Sarcomere length was adjusted to 2.5 μm by microscope. Contraction was elicited with 0.2-millisecond stimuli and injury via 1-second stimuli at 125 Hz.
For fluorescence experiments, a 75W xenon lamp was used with wavelengths selected using a diffraction grating monochromator (model DeltaRAM, Photon Technology International). Muscles were loaded with mag-fura-2 AM (10 μM in Tyrode) for 30 minutes at 25°C, excited at 344 and 375 nm (bandwidth 10 nm), and passed through a 510 nm emission filter (bandwidth 40 nm). Fluorescence responses were recorded alternately during 32 twitch contractions at 20-second intervals; background fluorescence was subtracted, and the response was averaged. High-affinity fura-2 was used to detect membrane breaches between tetanic contractions. Muscles were incubated with fura-2 AM (15 μM in Tyrode) for 30 minutes before 12 injurious contractions, separated by 1 minute with (10/s) alternating excitation wavelengths of 340 and 375 nm (bandwidth 1.25 nm) with a 510 nm emission filter (bandwidth 40 nm) and preloading background subtraction. Still and video images were captured using a digital camera (Nikon D750).

[6] = test system: GABAA; experiment: SAFETYscan Ion Channel; assay type: cell-based; conditions: 10 uM
Procedure: as §1

[7] = molecular target: T5, SNARK (Homo sapiens, UniProt Q9H093); experiment: KINOMEscan scanEDGE; assay type: binding; conditions: 20 uM
T5 construct: purchased Eurofins DiscoverX (KINOMEscan; SAFETYscan E/IC50 ELECT)

[8] = molecular target: T6, AXL (Homo sapiens, UniProt P30530); experiment: KINOMEscan scanEDGE; assay type: binding; conditions: 20 uM
T6 construct: purchased Eurofins DiscoverX (KINOMEscan; SAFETYscan E/IC50 ELECT)

[9] = test system: DBA/2J mdx mouse; experiment: 12-week dosing in DBA/2J mdx mice (fibrosis); assay type: in vivo; conditions: 12 weeks, chow
From the text: C57BL/6 (stock no. 000664), C57BL/10J (stock no. 000665, control for mdx experiments), C57BL/10ScSn-Dmd^mdx/J (mdx, stock no. 001801), and D2.B10 (DBA/2-congenic) Dmd^mdx (DBA/2J mdx, stock no. 013141) mice were from The Jackson Laboratory. Sprague-Dawley rats were purchased from Charles River Laboratories. For ex vivo experiments, mice were 10–16 weeks old. For in situ experiments, mice were 8–14 weeks of age. For in vivo chronic dosing studies, mdx and DBA/2J mdx were 4–5 weeks of age at study start. Dosing was via a 10 mL/kg suspension (1% methyl cellulose, 0.1% Tween 80 in water). For studies in 14-day-old preweaning mice, PO dosing was via syrup suspension (3 mg/kg/d). […]
For sterile muscle injury, mice were anesthetized with isoflurane and 50 μL cardiotoxin (12 × 10^–6 M, 217503, Millipore) injected in the TA muscle. […] 8 μm cryosections were cut and stained with H&E. For each analysis, more than 10 slides (per condition/group) containing 6 muscle sections/sample were used, and myofibers in the injured area were counted and measured with a Mirax digital scanner and HALO software ([68]). […] Image analysis was performed using ImarisX64 software (Bitplane AG), and fiber sizing was calculated using minimal Feret’s diameter ([69]). […] Fiber type, size, and central nucleation were quantified with analysis via SMASH ([70]) and ImageJ (NIH). […]

[10] = molecular target: T7, slow bovine masseter skeletal myofibrils (Bos taurus, UniProt Q9BE39); experiment: Myofibril ATPase, bovine masseter; assay type: biochemical; conditions: 100% type I, at pCa50
T7 construct: from tissue; host or cells: bovine masseter muscle

[11] = test system: mouse TA muscle; experiment: In situ TA force and lengthening injury; assay type: in vivo; conditions: oral
Procedure: Measurement of isometric force and eccentric injury response in situ was performed in mouse TA muscle based on published protocols ([30]). Mice were anesthetized with 2% isoflurane (0.7%–1.5% maintenance) on a 37°C platform. The distal tendon to the TA and EDL muscle was attached with 4-0 suture a servomotor (Aurora Scientific). The sciatic nerve was exposed at the knee for hook electrodes. For compound assessment, baseline isometric contraction was assessed at 25–175 Hz (9 mA, 300 ms) followed by 100 Hz stimuli every 5 minutes. After 15 minutes, compound was dosed PO, and recording continued for 4 hours followed by a second force frequency. For in situ eccentric injury, compound was administered PO, muscle was stimulated every 5 minutes at 100 Hz for 3.5 hours, and then 2 lengthening contractions were performed (10 min apart, 100 ms at 150 Hz, then lengthening 0.2 L0 at 2 L0/s and hold for 100 ms). Isometric force before and 10 minutes after the injury contractions was recorded.

[12] = molecular target: T8, AURKA (Homo sapiens, UniProt O14965); experiment: KINOMEscan scanEDGE; assay type: binding; conditions: 20 uM
T8 construct: purchased Eurofins DiscoverX (KINOMEscan; SAFETYscan E/IC50 ELECT)

T7 sequence (Q9BE39 whole entry): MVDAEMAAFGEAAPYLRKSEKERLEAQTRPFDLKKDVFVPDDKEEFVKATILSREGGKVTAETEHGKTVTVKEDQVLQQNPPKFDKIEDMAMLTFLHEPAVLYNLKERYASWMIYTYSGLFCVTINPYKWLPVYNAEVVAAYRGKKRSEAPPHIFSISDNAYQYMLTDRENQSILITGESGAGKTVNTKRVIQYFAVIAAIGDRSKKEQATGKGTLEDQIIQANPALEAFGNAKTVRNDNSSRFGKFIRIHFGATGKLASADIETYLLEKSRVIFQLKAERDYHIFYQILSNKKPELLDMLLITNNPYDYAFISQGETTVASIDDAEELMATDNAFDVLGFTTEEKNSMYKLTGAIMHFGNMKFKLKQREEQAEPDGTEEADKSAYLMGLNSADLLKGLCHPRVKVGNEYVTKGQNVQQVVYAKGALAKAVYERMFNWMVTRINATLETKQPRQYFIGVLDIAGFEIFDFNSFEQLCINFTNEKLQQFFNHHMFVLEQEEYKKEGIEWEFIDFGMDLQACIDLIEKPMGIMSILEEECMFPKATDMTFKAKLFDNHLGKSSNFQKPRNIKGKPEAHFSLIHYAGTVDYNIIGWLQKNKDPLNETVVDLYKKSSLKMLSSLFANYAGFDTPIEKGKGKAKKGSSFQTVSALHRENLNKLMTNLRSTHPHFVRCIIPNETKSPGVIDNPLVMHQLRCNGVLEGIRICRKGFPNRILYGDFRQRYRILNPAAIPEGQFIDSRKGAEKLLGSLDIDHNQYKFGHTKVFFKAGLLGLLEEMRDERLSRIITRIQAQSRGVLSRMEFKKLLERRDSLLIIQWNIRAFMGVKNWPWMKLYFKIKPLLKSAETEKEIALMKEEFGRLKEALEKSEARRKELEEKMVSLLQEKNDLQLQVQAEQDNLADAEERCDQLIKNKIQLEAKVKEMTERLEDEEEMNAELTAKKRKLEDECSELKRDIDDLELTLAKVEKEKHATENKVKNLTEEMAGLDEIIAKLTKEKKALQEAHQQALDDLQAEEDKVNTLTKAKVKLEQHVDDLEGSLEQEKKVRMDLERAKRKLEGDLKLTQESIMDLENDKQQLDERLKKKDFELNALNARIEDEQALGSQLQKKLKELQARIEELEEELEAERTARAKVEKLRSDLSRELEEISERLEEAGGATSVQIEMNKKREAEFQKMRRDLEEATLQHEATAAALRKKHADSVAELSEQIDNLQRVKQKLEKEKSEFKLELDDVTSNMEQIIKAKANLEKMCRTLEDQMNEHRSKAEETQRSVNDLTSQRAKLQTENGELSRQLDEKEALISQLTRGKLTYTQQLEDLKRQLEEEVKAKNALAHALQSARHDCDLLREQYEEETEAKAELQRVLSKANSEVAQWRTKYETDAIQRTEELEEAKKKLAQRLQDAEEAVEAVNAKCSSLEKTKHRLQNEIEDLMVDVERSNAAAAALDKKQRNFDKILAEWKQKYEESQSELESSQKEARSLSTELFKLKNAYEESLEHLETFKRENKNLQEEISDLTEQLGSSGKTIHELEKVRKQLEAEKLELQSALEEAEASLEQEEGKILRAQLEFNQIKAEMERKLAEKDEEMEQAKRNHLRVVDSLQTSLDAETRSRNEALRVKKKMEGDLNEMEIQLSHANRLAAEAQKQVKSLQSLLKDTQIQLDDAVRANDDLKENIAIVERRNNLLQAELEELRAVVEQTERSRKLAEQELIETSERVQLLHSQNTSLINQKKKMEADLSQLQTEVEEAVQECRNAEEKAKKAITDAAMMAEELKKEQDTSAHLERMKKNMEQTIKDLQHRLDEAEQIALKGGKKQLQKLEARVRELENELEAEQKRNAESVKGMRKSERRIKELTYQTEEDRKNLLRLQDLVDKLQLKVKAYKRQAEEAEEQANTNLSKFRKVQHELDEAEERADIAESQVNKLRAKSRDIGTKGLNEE
T7 sequence (P85100 whole entry partner): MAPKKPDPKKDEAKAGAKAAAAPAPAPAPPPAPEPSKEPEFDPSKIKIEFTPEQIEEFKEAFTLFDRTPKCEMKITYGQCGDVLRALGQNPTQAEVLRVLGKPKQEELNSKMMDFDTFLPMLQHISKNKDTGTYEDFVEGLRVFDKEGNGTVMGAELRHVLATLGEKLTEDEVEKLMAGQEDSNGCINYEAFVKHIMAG
T7 sequence (Q3SZE5 whole entry partner): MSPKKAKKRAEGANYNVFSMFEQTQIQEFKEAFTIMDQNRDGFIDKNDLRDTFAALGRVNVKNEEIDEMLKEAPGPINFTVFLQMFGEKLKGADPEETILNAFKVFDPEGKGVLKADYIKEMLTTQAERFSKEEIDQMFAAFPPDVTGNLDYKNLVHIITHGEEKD
T5 sequence (Q9H093 whole entry): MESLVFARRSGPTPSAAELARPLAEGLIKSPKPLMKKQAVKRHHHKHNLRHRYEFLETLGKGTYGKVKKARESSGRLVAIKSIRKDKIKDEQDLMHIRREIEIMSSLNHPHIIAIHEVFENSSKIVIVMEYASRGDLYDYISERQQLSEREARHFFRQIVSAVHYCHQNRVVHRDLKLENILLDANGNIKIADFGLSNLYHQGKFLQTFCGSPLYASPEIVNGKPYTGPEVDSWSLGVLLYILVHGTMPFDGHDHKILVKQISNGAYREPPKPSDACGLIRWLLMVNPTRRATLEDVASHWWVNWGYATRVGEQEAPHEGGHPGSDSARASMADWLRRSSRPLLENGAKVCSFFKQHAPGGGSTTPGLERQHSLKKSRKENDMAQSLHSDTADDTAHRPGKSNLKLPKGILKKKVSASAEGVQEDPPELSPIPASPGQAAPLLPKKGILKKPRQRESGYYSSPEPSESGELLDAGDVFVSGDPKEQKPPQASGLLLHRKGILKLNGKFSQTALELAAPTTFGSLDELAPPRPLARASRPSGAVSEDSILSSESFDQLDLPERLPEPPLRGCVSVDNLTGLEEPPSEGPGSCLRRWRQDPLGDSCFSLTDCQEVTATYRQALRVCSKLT
T4 sequence (P06213 28-1382): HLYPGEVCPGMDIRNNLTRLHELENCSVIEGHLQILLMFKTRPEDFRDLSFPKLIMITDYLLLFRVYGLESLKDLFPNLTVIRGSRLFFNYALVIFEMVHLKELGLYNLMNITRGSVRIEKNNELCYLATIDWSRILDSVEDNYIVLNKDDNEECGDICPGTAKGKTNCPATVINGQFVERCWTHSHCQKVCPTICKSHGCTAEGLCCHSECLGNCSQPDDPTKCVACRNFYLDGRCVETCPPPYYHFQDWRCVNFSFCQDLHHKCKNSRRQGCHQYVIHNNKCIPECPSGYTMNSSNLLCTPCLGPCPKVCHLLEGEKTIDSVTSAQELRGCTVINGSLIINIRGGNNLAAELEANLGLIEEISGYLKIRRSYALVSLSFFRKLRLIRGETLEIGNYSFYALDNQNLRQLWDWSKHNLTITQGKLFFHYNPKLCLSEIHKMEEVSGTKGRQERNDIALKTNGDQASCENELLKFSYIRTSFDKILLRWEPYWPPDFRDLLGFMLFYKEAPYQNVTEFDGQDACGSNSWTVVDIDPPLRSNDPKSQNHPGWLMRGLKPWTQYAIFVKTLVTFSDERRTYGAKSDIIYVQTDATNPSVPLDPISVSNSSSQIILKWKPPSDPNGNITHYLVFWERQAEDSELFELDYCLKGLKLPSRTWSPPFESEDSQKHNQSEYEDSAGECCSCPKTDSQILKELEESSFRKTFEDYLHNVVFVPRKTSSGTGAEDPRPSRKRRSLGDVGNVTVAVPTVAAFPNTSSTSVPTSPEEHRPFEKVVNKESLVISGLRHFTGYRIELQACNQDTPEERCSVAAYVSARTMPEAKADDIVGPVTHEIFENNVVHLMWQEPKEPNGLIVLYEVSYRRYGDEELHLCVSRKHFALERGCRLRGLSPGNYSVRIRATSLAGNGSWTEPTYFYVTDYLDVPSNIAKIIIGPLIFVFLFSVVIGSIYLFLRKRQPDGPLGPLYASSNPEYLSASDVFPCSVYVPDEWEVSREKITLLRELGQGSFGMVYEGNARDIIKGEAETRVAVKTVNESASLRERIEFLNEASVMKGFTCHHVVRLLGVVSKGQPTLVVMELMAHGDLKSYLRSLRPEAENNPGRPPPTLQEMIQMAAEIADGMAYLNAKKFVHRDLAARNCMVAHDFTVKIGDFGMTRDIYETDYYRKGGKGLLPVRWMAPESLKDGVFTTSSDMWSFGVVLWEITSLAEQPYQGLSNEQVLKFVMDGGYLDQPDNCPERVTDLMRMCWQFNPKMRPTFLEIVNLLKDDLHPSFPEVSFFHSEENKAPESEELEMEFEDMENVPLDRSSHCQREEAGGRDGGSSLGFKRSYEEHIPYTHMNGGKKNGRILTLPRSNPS
T1 sequence (P06239 whole entry): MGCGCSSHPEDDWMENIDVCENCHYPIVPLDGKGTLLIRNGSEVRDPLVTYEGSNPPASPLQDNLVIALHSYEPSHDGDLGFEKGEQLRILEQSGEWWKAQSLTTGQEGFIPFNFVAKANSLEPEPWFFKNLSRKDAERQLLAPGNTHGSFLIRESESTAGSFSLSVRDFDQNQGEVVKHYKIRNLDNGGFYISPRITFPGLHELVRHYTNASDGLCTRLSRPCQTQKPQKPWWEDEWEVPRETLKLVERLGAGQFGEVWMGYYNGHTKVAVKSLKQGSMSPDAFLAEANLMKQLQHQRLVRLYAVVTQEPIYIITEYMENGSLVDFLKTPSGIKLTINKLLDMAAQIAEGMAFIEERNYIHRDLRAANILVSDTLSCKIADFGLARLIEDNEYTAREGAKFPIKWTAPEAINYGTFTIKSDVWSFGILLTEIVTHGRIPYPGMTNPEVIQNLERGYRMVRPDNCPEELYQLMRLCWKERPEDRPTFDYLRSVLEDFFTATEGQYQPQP

O=c1ccc(-c2cnc(OCC(F)(F)F)nc2)nn1Cc1cncc(F)c1 [EDG-5506]
Emax [1]: 0% | Emax [2]: 24.6% | Emax [3]: 18.1% | Emax [4]: 26.9% | reduction of specific tension before injury ([5]; 0.3 μM): 15% | strength drop with contraction ([5]; mdx lumbrical): completely prevented | clot formation (hypercontraction) ([5]; mdx lumbrical, after 12 contractions): completely prevented clot formation | concentration of maximal efficacy ([5]; mdx lumbrical, repeated tetanic contraction): 0.3 µM | Max Response (%) (Agonist) [6]: 4.91% | Max Response (%) (Antagonist) [6]: 7.72% | binding, % of control [7]: 100 % of control | binding, % of control [8]: 92 % of control | fibrosis in TA and diaphragm muscles [9]: reduced fibrosis | left ventricular fibrosis [9]: trend toward lower fibrosis | IC50 [10]: > 100 µM | decrease in isometric force at protective doses ([11]; mdx TA in situ): < 10% | strength drop after in situ lengthening injury ([11]; mdx TA muscle, 2 lengthening contractions): dramatically improved | binding, % of control [12]: 99 % of control
